# In PubChem BioAssay (NCI):
#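 Interpolation was linear, between the two tested concentrations surrounding the appropriate level; five concentrations were tested over 48 hours in 96-well plates. At the TGI there is no net growth.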 Where a SMILES comes first, the peptide text is derived from it. The star is where a group is joined. Fmoc = O=C(OCC1c2ccccc2-c2ccccc21)*; Boc = CC(C)(C)OC(=O)*
# What was measured:
# Test in all cases: DTP human tumour cell line panel, 48 h
# 786-0 renal = tested on: 786-0 renal
# A498 renal = tested on: A498 renal
# A549 NSCLC = tested on: A549 NSCLC
# ACHN renal = tested on: ACHN renal
# BT-549 breast = tested on: BT-549 breast
# CAKI-1 renal = tested on: CAKI-1 renal
# COLO 205 colon = tested on: COLO 205 colon
# DU-145 prostate = tested on: DU-145 prostate
# EKVX NSCLC = tested on: EKVX NSCLC
# HCC-2998 colon = tested on: HCC-2998 colon
# HCT-116 colon = tested on: HCT-116 colon
# HCT-15 colon = tested on: HCT-15 colon
# HL-60(TB) leukemia = tested on: HL-60(TB) leukemia
# HOP-62 NSCLC = tested on: HOP-62 NSCLC
# HS 578T breast = tested on: HS 578T breast
# HT29 colon = tested on: HT29 colon
# IGROV1 ovarian = tested on: IGROV1 ovarian
# K-562 leukemia = tested on: K-562 leukemia
# KM12 colon = tested on: KM12 colon
# LOX IMVI melanoma = tested on: LOX IMVI melanoma
# M14 melanoma = tested on: M14 melanoma
# MALME-3M melanoma = tested on: MALME-3M melanoma
# MCF7 breast = tested on: MCF7 breast
# MDA-MB-231 breast = tested on: MDA-MB-231 breast
# MDA-MB-435 = tested on: MDA-MB-435
# MDA-N = tested on: MDA-N
# MOLT-4 leukemia = tested on: MOLT-4 leukemia
# NCI-H226 lung = tested on: NCI-H226 lung
# NCI-H23 lung = tested on: NCI-H23 lung
# NCI-H460 lung = tested on: NCI-H460 lung
# NCI-H522 lung = tested on: NCI-H522 lung
# NCI/ADR-RES ovarian = tested on: NCI/ADR-RES ovarian
# OVCAR-3 ovarian = tested on: OVCAR-3 ovarian
# OVCAR-4 ovarian = tested on: OVCAR-4 ovarian
# OVCAR-5 ovarian = tested on: OVCAR-5 ovarian
# OVCAR-8 ovarian = tested on: OVCAR-8 ovarian
# PC-3 prostate = tested on: PC-3 prostate
# RPMI-8226 leukemia = tested on: RPMI-8226 leukemia
# RXF 393 renal = tested on: RXF 393 renal
# SF-268 CNS = tested on: SF-268 CNS
# SF-295 CNS = tested on: SF-295 CNS
# SK-MEL-2 melanoma = tested on: SK-MEL-2 melanoma
# SK-MEL-28 melanoma = tested on: SK-MEL-28 melanoma
# SK-MEL-5 melanoma = tested on: SK-MEL-5 melanoma
# SN12C renal = tested on: SN12C renal
# SNB-19 CNS = tested on: SNB-19 CNS
# SNB-75 CNS = tested on: SNB-75 CNS
# SR leukemia = tested on: SR leukemia
# SW-620 colon = tested on: SW-620 colon
# T-47D breast = tested on: T-47D breast
# TK-10 renal = tested on: TK-10 renal
# U251 CNS = tested on: U251 CNS
# UACC-257 melanoma = tested on: UACC-257 melanoma
# UACC-62 melanoma = tested on: UACC-62 melanoma
# UO-31 renal = tested on: UO-31 renal
# CCRF-CEM leukemia = tested on: CCRF-CEM leukemia
# HOP-92 NSCLC = tested on: HOP-92 NSCLC
# SF-539 CNS = tested on: SF-539 CNS
# SK-OV-3 ovarian = tested on: SK-OV-3 ovarian
smiles,measurement,setting,value
COc1cc2c(cc1OCCCCOc1cc3c(cc1OC)C(=O)N1CCC[C@H]1C(=O)N3)N=C[C@@H]1CCCN1C2=O,TGI,786-0 renal,39.2 µM
same,TGI,A498 renal,19.9 µM
same,TGI,A549 NSCLC,44.9 µM
same,TGI,ACHN renal,27.9 µM
same,TGI,BT-549 breast,16.8 µM
same,TGI,CAKI-1 renal,25.5 µM
same,TGI,COLO 205 colon,7.41 µM
same,TGI,DU-145 prostate,44.3 µM
same,TGI,EKVX NSCLC,27.6 µM
same,TGI,HCC-2998 colon,26.3 µM
same,TGI,HCT-116 colon,> 100 µM
same,TGI,HCT-15 colon,24.6 µM
same,TGI,HL-60(TB) leukemia,37.3 µM
same,TGI,HOP-62 NSCLC,44.5 µM
same,TGI,HS 578T breast,27.6 µM
same,TGI,HT29 colon,43.2 µM
same,TGI,IGROV1 ovarian,20.7 µM
same,TGI,K-562 leukemia,6.88 µM
same,TGI,KM12 colon,22.2 µM
same,TGI,LOX IMVI melanoma,4.22 µM
same,TGI,M14 melanoma,33 µM
same,TGI,MALME-3M melanoma,22.5 µM
same,TGI,MCF7 breast,18.1 µM
same,TGI,MDA-MB-231 breast,8.7 µM
same,TGI,MDA-MB-435,14.4 µM
same,TGI,MDA-N,19.6 µM
same,TGI,MOLT-4 leukemia,4.69 µM
same,TGI,NCI-H226 lung,26.7 µM
same,TGI,NCI-H23 lung,25.4 µM
same,TGI,NCI-H460 lung,43.9 µM
same,TGI,NCI-H522 lung,3.24 µM
same,TGI,NCI/ADR-RES ovarian,29 µM
same,TGI,OVCAR-3 ovarian,25.7 µM
same,TGI,OVCAR-4 ovarian,27.7 µM
same,TGI,OVCAR-5 ovarian,33 µM
same,TGI,OVCAR-8 ovarian,27.8 µM
same,TGI,PC-3 prostate,19.4 µM
same,TGI,RPMI-8226 leukemia,3.66 µM
same,TGI,RXF 393 renal,14.8 µM
same,TGI,SF-268 CNS,14.8 µM
same,TGI,SF-295 CNS,26 µM
same,TGI,SK-MEL-2 melanoma,20.1 µM
same,TGI,SK-MEL-28 melanoma,30.8 µM
same,TGI,SK-MEL-5 melanoma,14.8 µM
same,TGI,SN12C renal,21.4 µM
same,TGI,SNB-19 CNS,20.5 µM
same,TGI,SNB-75 CNS,18.1 µM
same,TGI,SR leukemia,4.59 µM
same,TGI,SW-620 colon,14.6 µM
same,TGI,T-47D breast,28.7 µM
same,TGI,TK-10 renal,27.4 µM
same,TGI,U251 CNS,14 µM
same,TGI,UACC-257 melanoma,29.3 µM
same,TGI,UACC-62 melanoma,10.3 µM
same,TGI,UO-31 renal,28 µM
CC(C)(C)OC(=O)NCCCCC(NC(=O)C(Cc1c[nH]c2ccccc12)NC(=O)OCC1c2ccccc2-c2ccccc21)C(=O)N1CCCC1C(=O)NCC(N)=O (centres undefined) (Fmoc-WK(Boc)PG-NH2; configuration not given here),TGI,786-0 renal,> 100 µM
same,TGI,A549 NSCLC,> 100 µM
same,TGI,ACHN renal,> 100 µM
same,TGI,BT-549 breast,> 100 µM
same,TGI,CAKI-1 renal,> 100 µM
same,TGI,CCRF-CEM leukemia,> 100 µM
same,TGI,COLO 205 colon,> 100 µM
same,TGI,DU-145 prostate,> 100 µM
same,TGI,EKVX NSCLC,> 100 µM
same,TGI,HCC-2998 colon,> 100 µM
same,TGI,HCT-116 colon,> 100 µM
same,TGI,HCT-15 colon,> 100 µM
same,TGI,HL-60(TB) leukemia,> 100 µM
same,TGI,HOP-62 NSCLC,> 100 µM
same,TGI,HOP-92 NSCLC,> 100 µM
same,TGI,HS 578T breast,> 100 µM
same,TGI,HT29 colon,> 100 µM
same,TGI,IGROV1 ovarian,> 100 µM
same,TGI,K-562 leukemia,> 100 µM
same,TGI,KM12 colon,> 100 µM
same,TGI,LOX IMVI melanoma,> 100 µM
same,TGI,M14 melanoma,> 100 µM
same,TGI,MALME-3M melanoma,> 100 µM
same,TGI,MCF7 breast,> 100 µM
same,TGI,MDA-MB-231 breast,> 100 µM
same,TGI,MDA-MB-435,> 100 µM
same,TGI,MDA-N,> 100 µM
same,TGI,MOLT-4 leukemia,> 100 µM
same,TGI,NCI-H226 lung,> 100 µM
same,TGI,NCI-H23 lung,> 100 µM
same,TGI,NCI-H460 lung,> 100 µM
same,TGI,NCI-H522 lung,> 100 µM
same,TGI,NCI/ADR-RES ovarian,> 100 µM
same,TGI,OVCAR-3 ovarian,> 100 µM
same,TGI,OVCAR-4 ovarian,> 100 µM
same,TGI,OVCAR-5 ovarian,> 100 µM
same,TGI,OVCAR-8 ovarian,> 100 µM
same,TGI,PC-3 prostate,> 100 µM
same,TGI,RPMI-8226 leukemia,> 100 µM
same,TGI,RXF 393 renal,> 100 µM
same,TGI,SF-268 CNS,> 100 µM
same,TGI,SF-295 CNS,> 100 µM
same,TGI,SF-539 CNS,> 100 µM
same,TGI,SK-MEL-2 melanoma,> 100 µM
same,TGI,SK-MEL-28 melanoma,> 100 µM
same,TGI,SK-MEL-5 melanoma,> 100 µM
same,TGI,SK-OV-3 ovarian,> 100 µM
same,TGI,SN12C renal,> 100 µM
same,TGI,SNB-19 CNS,> 100 µM
same,TGI,SNB-75 CNS,> 100 µM
same,TGI,SR leukemia,> 100 µM
same,TGI,SW-620 colon,> 100 µM
same,TGI,T-47D breast,> 100 µM
same,TGI,TK-10 renal,> 100 µM
same,TGI,U251 CNS,> 100 µM
same,TGI,UACC-257 melanoma,> 100 µM
same,TGI,UACC-62 melanoma,> 100 µM
same,TGI,UO-31 renal,> 100 µM
Cc1ccc(S(=O)c2sccc2C=O)cc1 (centres undefined),TGI,786-0 renal,> 100 µM
same,TGI,A498 renal,> 100 µM
same,TGI,A549 NSCLC,> 100 µM
same,TGI,ACHN renal,> 100 µM
same,TGI,BT-549 breast,60.3 µM
same,TGI,CAKI-1 renal,> 100 µM
same,TGI,CCRF-CEM leukemia,56 µM
same,TGI,COLO 205 colon,> 100 µM
same,TGI,DU-145 prostate,> 100 µM
same,TGI,EKVX NSCLC,> 100 µM
same,TGI,HCC-2998 colon,> 100 µM
same,TGI,HCT-116 colon,31 µM
same,TGI,HCT-15 colon,85.8 µM
same,TGI,HL-60(TB) leukemia,48.2 µM
same,TGI,HOP-62 NSCLC,68.1 µM
same,TGI,HS 578T breast,65.9 µM
same,TGI,HT29 colon,45 µM
same,TGI,IGROV1 ovarian,74.3 µM
same,TGI,K-562 leukemia,> 100 µM
same,TGI,KM12 colon,70.3 µM
same,TGI,LOX IMVI melanoma,32.4 µM
same,TGI,M14 melanoma,58.1 µM
same,TGI,MALME-3M melanoma,> 100 µM
same,TGI,MCF7 breast,43.8 µM
same,TGI,MDA-MB-231 breast,> 100 µM
same,TGI,MDA-MB-435,62.6 µM
same,TGI,MDA-N,> 100 µM
same,TGI,MOLT-4 leukemia,59.1 µM
same,TGI,NCI-H23 lung,> 100 µM
same,TGI,NCI-H460 lung,50.4 µM
same,TGI,NCI-H522 lung,> 100 µM
same,TGI,NCI/ADR-RES ovarian,67.2 µM
same,TGI,OVCAR-4 ovarian,75 µM
same,TGI,OVCAR-5 ovarian,> 100 µM
same,TGI,OVCAR-8 ovarian,56.5 µM
same,TGI,PC-3 prostate,> 100 µM
same,TGI,RPMI-8226 leukemia,76.2 µM
same,TGI,RXF 393 renal,> 100 µM
same,TGI,SF-268 CNS,82.4 µM
same,TGI,SF-295 CNS,71.3 µM
same,TGI,SF-539 CNS,41.7 µM
same,TGI,SK-MEL-2 melanoma,> 100 µM
same,TGI,SK-MEL-28 melanoma,92.4 µM
same,TGI,SK-MEL-5 melanoma,> 100 µM
same,TGI,SK-OV-3 ovarian,> 100 µM
same,TGI,SN12C renal,63.5 µM
same,TGI,SNB-19 CNS,> 100 µM
same,TGI,SNB-75 CNS,94.9 µM
same,TGI,SR leukemia,84.2 µM
same,TGI,SW-620 colon,55.9 µM
same,TGI,T-47D breast,> 100 µM
same,TGI,TK-10 renal,> 100 µM
same,TGI,U251 CNS,34.6 µM
same,TGI,UACC-257 melanoma,> 100 µM
same,TGI,UACC-62 melanoma,55.3 µM
same,TGI,UO-31 renal,> 100 µM
